Active and inactive are the calls of the source.
Key:
[1] = molecular target: Glucose-6-phosphate 1-dehydrogenase (Homo sapiens, UniProt P11413); assay: inhibition of Homo sapiens G6PD, dose series – biochemical, fluorescence, selectivity assay for P. falciparum G6PD inhibitor project, dose response (AID 504792); format: functional
[2] = molecular target: Tyrosine-protein phosphatase non-receptor type 5 (Homo sapiens, UniProt P54829); assay: PTPN5 enzyme inhibition – biochemical, fluorescence intensity, uHTS hits, confirmation (AID 602372); format: functional; details: read-out: IC50_Mean
Tyrosine-protein phosphatase non-receptor type 5, sequence (P54829 whole entry): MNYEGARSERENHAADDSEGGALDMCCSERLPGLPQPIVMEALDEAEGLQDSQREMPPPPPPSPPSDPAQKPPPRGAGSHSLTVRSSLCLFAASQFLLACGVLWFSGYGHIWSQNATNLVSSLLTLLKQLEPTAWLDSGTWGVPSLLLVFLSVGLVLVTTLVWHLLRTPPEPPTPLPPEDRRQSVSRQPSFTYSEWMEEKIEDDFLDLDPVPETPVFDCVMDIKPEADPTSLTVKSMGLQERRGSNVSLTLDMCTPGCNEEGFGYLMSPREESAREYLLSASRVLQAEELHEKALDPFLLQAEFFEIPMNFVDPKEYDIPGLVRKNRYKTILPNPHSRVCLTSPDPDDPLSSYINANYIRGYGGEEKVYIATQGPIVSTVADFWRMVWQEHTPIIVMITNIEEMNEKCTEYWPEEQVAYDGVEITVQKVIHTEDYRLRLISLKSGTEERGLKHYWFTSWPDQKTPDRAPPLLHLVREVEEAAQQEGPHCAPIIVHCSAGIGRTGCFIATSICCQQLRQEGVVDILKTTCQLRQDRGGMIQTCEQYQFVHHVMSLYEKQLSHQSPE

[3] = molecular target: Tyrosine-protein phosphatase non-receptor type 11 (Homo sapiens, UniProt Q06124); assay: PTPN11 enzyme inhibitors – biochemical, selectivity assay for STEP inhibitor project, dose response (AID 602367); format: functional; details: read-out: IC50_Mean
[4] = molecular target: Dual specificity protein phosphatase 3 (Homo sapiens, UniProt P51452); assay: VHR phosphatase inhibition, dose response, selectivity assay for STEP inhibitor project, biochemical (AID 602374); format: functional; details: read-out: IC50_Mean
Dual specificity protein phosphatase 3, sequence (P51452 whole entry): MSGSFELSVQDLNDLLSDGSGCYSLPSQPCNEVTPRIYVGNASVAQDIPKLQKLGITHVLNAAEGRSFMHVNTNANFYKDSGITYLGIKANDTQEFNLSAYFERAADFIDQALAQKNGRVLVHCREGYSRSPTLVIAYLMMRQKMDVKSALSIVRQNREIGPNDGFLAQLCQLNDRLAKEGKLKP

Interleukin-8 [5] = molecular target: T1, Interleukin-8 (Homo sapiens, UniProt P10145); assay: Dose Response confirmation of uHTS small molecule hits for cystic fibrosis induced NFkb Inhibitors in a PAF-induced IL8 counterscreen.; format: functional; details: read-out: IC50_Mean
T1 sequence (P10145 whole entry): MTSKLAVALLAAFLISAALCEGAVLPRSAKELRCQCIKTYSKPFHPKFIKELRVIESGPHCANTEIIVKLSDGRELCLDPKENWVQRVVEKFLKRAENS

HEK293 = assay: EBV LMP1 TES2 canonical NF-kB signalling blockers – cell-based, HEK293, luciferase, cherry-pick, dose response (AID 588343); format: functional; details: Homo sapiens
Interleukin-8 [6] = molecular target: T1, Interleukin-8; assay: Dose Response confirmation of uHTS small molecule hits for cystic fibrosis induced NFkb Inhibitors in a TNFa-induced IL8 counterscreen.; format: functional; details: read-out: IC50_Mean
[7] = molecular target: T2, High affinity choline transporter 1 (Homo sapiens, UniProt Q9GZV3); assay: human choline transporter blockers, potency – cell-based, 5-point CRC, membrane potential dye, dose response (AID 504840); format: functional
T2 sequence (Q9GZV3 whole entry): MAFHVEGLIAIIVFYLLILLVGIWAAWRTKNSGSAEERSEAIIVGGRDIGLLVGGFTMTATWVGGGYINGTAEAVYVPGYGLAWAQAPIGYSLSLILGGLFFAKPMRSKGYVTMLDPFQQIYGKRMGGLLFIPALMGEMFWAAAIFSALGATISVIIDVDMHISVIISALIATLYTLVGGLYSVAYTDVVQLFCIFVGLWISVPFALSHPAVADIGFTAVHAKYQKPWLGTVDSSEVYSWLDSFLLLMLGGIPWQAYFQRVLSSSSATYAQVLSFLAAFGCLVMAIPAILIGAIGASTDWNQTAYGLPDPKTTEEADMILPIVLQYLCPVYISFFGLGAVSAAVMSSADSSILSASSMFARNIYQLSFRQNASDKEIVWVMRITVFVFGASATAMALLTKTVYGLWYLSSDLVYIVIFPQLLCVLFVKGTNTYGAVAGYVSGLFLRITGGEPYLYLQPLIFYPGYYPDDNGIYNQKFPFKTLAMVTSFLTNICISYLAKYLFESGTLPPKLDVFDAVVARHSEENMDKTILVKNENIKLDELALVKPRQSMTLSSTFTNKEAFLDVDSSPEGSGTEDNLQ

[8] = molecular target: T2, High affinity choline transporter 1; assay: human choline transporter radiolabel uptake blockers – cell-based, 3H-choline uptake, CHT LV-AA trafficking mutant, CRC, dose response (AID 602208); format: functional
[9] = molecular target: T2, High affinity choline transporter 1; assay: human choline transporter blockers, potency – cell-based, 10-point CRC, membrane potential dye, dose response (AID 588401); format: functional;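 further: membrane potential dye fluorescence of choline-evoked depolarization via CHT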
cells = format: functional
[10] = THP-1 cell cytotoxicity, dose response, cytotoxicity control for non-replicating M. tuberculosis project (AID 489025); format: functional
[11] = NIH3T3 cell viability loss – ATP luminescence, mouse fibroblasts, counter-screen, dose response (AID 2010); format: functional, cell-based;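 further: cells exposed to compound for about 90 hours before reading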
[12] = Vero E6 cell cytotoxicity, dose response, cytotoxicity control for non-replicating M. tuberculosis project, secondary assay (AID 492998); format: functional, VeroE6; details: Vero C1008
[13] = molecular target: T3, Microphthalmia-associated transcription factor (Homo sapiens, UniProt O75030); assay: reducers of TRPM1 reporter luminescence, concentration series – cell-based, SK-MEL-5, cherry-picked, set 3, MITF inhibitor project, dose response (AID 493073); format: functional;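 further: SK-MEL-5 melanoma cells with luciferase driven by the MITF target TRPM1 promoter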
T3 sequence (O75030 whole entry): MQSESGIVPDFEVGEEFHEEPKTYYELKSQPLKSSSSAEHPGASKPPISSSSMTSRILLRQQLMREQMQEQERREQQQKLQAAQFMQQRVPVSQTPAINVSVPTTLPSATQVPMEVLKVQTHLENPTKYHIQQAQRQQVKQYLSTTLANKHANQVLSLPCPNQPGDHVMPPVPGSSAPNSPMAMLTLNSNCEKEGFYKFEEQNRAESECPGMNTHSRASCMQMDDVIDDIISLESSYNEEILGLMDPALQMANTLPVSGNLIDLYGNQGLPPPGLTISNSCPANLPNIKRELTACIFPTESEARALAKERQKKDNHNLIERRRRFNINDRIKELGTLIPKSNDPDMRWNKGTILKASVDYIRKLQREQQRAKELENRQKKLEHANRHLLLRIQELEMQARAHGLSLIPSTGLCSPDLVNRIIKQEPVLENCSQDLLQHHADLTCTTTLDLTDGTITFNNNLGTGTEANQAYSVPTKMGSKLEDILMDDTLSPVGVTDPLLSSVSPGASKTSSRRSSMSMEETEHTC

[14] = Trypanosoma cruzi growth suppression in host cells – NIH3T3 host cells, beta-gal luminescence, confirmation (AID 2044); format: functional, cell-based;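 further: intracellular parasites grown in NIH/3T3 mouse fibroblasts as host cells; luminescent beta-galactosidase reporter signal from transgenic T. cruzi replicating inside host cells; inhibitors lower the luminescence signal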
[15] = molecular target: Mitochondrial peptide methionine sulfoxide reductase (Bos taurus, UniProt P54149); assay: Absorbance-based biochemical high throughput dose response assay for activators of Methionine sulfoxide reductase A (MsrA).; format: functional
[16] = HepG2 cell cytotoxicity, cytotoxicity control, set 4 (AID 504910); format: functional; details: Mycobacterium tuberculosis
[17] = molecular target: Heat shock cognate 71 kDa protein (Homo sapiens, UniProt P11142); assay: In Vitro Hsc70 Dose Response Fluorescence Polarization Assay. [Related pubchem assays: 1072 ]
[18] = molecular target: Heat shock 70 kDa protein 1A (Homo sapiens, UniProt P0DMV8); assay: inhibition of Hsp70 binding activity – biochemical, fluorescence polarization, SAR follow-up (AID 1072)
Heat shock 70 kDa protein 1A, sequence (P0DMV8 whole entry): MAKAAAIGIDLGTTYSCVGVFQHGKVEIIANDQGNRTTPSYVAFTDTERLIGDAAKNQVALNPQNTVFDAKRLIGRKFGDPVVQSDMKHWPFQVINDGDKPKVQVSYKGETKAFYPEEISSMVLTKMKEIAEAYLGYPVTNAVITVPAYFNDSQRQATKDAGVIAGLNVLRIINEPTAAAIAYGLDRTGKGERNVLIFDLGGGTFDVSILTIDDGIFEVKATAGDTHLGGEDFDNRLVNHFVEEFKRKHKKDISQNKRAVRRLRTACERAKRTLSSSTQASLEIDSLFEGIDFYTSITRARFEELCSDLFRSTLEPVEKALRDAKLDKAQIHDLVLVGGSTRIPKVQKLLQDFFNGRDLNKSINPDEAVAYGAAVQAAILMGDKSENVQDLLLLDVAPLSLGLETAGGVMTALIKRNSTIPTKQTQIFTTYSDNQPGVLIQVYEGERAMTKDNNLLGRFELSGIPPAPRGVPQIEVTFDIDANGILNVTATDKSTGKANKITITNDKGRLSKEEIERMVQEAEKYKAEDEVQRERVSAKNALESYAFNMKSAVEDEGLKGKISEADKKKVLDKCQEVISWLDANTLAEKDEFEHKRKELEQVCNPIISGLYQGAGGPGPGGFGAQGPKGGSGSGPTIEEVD

Prothrombin = Prothrombin (Bos taurus, UniProt P00735); assay: thrombin protease inhibitors – biochemical, fluorescence polarization, uHTS hits, dose response (AID 602369); format: functional
[19] = molecular target: Eukaryotic translation initiation factor 4E (Mus musculus, UniProt P63073); assay: blockers of eIF4G binding by eIF4E – biochemical, TR-FRET, dose response (AID 855); format: functional;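 further: potency for disrupting eIF4E binding to eIF4GI seen as loss of FRET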
[20] = molecular target: T4, Dual specificity protein phosphatase 6 (Rattus norvegicus, UniProt Q64346)
T4 sequence (Q64346 whole entry): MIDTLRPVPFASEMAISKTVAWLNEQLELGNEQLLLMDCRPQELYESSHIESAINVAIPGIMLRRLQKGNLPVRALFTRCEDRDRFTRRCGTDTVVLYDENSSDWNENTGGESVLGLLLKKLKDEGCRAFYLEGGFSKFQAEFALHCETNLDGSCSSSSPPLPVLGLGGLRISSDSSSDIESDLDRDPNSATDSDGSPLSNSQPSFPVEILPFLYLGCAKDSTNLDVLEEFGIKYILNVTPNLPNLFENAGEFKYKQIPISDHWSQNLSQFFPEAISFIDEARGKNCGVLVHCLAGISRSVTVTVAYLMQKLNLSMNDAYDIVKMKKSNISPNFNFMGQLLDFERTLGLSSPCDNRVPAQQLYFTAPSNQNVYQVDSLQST

HeLa = assay: viability loss in HeLa cells – cell-based, 24 h, cherry-picked samples, cytotoxicity control, dose response (AID 504726); format: functional; details: Homo sapiens;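 further: potency for cytotoxicity as loss of luminescence signal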
[21] = molecular target: 72 kDa type IV collagenase (Homo sapiens, UniProt P08253); assay: Dose Response validation of uHTS RPN11 inhibitor hits using a MMP-2 Fluorescence assay.; format: functional
[22] = molecular target: 26S proteasome non-ATPase regulatory subunit 14 (Homo sapiens, UniProt O00487); assay: inhibition of proteasome subunit RPN11 – biochemical, fluorescence polarization, uHTS hits, confirmation (AID 602368); format: functional
26S proteasome non-ATPase regulatory subunit 14, sequence (O00487 whole entry): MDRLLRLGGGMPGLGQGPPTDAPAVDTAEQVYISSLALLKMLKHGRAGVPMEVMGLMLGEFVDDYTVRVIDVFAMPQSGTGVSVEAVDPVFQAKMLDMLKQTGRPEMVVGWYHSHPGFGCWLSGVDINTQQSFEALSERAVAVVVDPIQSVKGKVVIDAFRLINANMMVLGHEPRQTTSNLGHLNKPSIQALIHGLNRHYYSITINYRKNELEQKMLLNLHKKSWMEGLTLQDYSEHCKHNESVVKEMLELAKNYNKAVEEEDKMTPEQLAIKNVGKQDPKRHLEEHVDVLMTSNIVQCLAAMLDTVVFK

Large T antigen = Large T antigen (Simian virus 40, UniProt P03070); format: functional, Betapolyomavirus macacae;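 further: Confirmatory-stage PubChem screen for compounds that inhibit SV40 T antigen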
Large T antigen, sequence (P03070 whole entry): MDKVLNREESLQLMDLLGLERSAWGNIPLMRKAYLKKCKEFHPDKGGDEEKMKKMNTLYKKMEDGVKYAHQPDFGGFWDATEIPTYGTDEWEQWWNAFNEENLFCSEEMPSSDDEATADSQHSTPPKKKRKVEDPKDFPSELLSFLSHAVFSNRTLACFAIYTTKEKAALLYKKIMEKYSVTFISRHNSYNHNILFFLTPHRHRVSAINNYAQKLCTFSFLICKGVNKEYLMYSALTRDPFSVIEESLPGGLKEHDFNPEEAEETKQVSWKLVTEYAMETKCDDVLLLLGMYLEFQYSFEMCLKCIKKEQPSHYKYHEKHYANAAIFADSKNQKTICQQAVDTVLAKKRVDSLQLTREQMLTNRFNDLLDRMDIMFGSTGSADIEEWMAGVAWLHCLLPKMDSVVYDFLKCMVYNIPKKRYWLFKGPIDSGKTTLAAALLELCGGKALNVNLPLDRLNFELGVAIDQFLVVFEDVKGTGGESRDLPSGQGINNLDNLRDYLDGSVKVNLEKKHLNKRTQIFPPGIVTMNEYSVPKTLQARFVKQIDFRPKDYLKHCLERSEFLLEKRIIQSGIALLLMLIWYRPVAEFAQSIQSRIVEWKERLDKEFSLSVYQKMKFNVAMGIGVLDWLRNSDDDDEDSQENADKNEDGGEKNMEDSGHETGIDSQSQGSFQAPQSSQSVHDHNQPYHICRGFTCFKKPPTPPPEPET

[23] = molecular target: Glyceraldehyde-3-phosphate dehydrogenase (Homo sapiens, UniProt P04406)
Glyceraldehyde-3-phosphate dehydrogenase, sequence (P04406 whole entry): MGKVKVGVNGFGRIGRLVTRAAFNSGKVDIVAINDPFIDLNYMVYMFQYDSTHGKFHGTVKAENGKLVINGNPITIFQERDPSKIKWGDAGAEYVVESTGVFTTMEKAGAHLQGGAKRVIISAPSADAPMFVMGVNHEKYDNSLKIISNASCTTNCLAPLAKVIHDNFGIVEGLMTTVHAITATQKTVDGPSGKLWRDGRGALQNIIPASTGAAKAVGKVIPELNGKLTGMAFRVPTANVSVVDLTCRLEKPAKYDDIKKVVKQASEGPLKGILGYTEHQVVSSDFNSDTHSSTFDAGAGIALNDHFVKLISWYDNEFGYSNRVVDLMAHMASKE

[24] = molecular target: T5, Lysine-specific demethylase 4C (Homo sapiens, UniProt Q9H3R0); assay: inhibition of JMJD2C H3K9me3 demethylation – biochemical, DELFIA europium, cherry-picked samples, dose response (AID 488835); format: functional
T5 sequence (Q9H3R0 whole entry): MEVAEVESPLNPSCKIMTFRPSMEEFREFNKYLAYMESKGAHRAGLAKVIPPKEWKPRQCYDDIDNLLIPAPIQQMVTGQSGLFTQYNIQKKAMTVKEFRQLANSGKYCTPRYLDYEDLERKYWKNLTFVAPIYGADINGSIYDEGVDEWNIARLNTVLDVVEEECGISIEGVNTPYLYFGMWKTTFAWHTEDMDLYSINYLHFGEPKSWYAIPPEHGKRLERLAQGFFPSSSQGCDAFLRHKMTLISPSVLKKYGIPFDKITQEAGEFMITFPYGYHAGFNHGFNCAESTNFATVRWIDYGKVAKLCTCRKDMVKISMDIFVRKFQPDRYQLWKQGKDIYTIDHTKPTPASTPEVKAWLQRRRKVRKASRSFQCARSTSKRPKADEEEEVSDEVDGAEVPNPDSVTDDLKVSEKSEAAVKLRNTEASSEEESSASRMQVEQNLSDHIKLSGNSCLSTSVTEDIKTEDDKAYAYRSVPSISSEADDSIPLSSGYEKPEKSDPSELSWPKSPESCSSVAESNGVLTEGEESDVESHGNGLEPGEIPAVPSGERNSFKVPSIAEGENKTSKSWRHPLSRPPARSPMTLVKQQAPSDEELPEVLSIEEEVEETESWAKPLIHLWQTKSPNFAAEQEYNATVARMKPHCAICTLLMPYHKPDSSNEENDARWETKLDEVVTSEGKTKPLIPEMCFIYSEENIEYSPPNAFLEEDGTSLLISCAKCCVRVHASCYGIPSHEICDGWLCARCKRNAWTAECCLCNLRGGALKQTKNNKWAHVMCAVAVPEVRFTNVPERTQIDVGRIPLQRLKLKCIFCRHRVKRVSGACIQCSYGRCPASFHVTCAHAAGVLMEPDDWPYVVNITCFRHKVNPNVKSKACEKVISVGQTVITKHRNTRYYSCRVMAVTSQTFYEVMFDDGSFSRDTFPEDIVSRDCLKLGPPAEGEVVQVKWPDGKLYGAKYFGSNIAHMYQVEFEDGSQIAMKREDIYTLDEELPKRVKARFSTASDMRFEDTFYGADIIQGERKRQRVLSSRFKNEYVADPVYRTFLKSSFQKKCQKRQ

ORF 73 = ORF 73 (Human herpesvirus 8, UniProt O40947); assay: KSHV LANA DNA-binding disruption – biochemical, fluorescence polarization, cherry-picked samples, dose response (AID 504725); parameters: species or system Human gammaherpesvirus 8;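 further: fluorescence polarization of a labeled DNA duplex reporting LANA DNA binding; potency is for inhibitors that block LANA binding to the DNA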
[25] = molecular target: T4, Dual specificity protein phosphatase 6; format: functional
[26] = molecular target: T6, Tyrosine-protein phosphatase non-receptor type 7 (Homo sapiens, UniProt P35236); format: functional
T6 sequence (P35236 whole entry): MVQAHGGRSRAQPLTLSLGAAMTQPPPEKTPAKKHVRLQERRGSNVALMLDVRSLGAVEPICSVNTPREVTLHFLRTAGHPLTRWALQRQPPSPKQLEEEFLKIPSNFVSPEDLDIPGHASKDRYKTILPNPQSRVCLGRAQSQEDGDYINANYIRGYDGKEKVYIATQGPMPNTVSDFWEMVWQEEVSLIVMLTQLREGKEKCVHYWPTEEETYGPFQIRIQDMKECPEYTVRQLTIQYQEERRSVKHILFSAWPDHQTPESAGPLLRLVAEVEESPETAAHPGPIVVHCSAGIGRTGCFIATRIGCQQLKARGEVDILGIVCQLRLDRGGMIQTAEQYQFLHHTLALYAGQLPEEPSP

[27] = molecular target: T4, Dual specificity protein phosphatase 6; assay: inhibition of rat DUSP6 enzyme activity – biochemical, in vitro, primary screen (AID 425)
[28] = molecular target: DNA (cytosine-5)-methyltransferase 1 (Homo sapiens, UniProt P26358); assay: inhibition of DNA methylation by DNMT1 – biochemical, fluorescent molecular beacon, confirmation (AID 602386); format: functional
DNA (cytosine-5)-methyltransferase 1, sequence (P26358 whole entry, the tested form may be a part): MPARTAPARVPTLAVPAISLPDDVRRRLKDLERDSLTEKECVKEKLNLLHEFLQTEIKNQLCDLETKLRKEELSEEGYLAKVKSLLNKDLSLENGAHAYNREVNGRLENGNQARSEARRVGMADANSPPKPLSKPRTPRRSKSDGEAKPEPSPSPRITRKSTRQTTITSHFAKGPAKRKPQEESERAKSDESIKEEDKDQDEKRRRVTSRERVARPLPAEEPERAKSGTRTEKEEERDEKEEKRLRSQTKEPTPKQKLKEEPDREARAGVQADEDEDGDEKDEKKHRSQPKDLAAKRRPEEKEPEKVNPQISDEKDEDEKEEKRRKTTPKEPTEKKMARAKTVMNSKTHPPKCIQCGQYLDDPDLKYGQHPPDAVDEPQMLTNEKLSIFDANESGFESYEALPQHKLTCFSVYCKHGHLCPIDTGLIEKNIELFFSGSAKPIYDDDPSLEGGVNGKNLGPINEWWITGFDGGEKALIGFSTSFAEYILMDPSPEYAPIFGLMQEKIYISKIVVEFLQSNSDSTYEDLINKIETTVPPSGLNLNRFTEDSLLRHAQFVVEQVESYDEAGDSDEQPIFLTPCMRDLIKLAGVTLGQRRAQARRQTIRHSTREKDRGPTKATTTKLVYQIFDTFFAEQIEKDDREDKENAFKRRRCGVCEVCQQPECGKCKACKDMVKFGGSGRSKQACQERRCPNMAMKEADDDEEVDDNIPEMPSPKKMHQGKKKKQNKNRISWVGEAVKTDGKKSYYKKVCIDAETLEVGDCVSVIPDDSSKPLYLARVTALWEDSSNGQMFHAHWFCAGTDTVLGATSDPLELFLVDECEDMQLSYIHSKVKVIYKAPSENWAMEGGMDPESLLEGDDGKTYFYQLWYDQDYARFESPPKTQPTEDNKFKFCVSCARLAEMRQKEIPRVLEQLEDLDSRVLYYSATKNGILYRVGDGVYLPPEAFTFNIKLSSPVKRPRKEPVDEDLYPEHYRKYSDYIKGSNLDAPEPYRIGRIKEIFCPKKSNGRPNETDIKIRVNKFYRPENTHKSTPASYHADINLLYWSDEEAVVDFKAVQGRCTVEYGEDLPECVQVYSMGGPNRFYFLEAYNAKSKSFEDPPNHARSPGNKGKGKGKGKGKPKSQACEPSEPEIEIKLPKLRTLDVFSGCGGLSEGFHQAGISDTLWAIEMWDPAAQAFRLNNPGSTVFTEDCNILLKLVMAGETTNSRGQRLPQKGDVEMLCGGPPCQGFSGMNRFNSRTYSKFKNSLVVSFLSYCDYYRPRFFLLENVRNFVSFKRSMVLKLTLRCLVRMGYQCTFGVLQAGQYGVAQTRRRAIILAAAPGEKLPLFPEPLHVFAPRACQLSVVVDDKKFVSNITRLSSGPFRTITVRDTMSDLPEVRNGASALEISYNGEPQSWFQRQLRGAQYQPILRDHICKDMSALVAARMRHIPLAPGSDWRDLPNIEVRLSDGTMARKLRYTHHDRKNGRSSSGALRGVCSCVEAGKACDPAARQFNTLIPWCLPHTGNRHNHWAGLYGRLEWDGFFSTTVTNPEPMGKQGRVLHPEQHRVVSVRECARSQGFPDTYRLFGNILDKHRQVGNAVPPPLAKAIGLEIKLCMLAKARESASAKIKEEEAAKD

[29] = inhibition of ARNT PAS-B/TACC3 complex formation – biochemical, AlphaScreen, cherry-picked samples, confirmation (AID 651703); format: functional, Homo sapiens;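 further: His-tagged ARNT PAS-B domain paired with GST-TACC3 E629A dimer coactivator fragment; potency of inhibitors that break up the complex and lower AlphaScreen signal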

Glucose-6-phosphate 1-dehydrogenase, sequence (P11413 whole entry): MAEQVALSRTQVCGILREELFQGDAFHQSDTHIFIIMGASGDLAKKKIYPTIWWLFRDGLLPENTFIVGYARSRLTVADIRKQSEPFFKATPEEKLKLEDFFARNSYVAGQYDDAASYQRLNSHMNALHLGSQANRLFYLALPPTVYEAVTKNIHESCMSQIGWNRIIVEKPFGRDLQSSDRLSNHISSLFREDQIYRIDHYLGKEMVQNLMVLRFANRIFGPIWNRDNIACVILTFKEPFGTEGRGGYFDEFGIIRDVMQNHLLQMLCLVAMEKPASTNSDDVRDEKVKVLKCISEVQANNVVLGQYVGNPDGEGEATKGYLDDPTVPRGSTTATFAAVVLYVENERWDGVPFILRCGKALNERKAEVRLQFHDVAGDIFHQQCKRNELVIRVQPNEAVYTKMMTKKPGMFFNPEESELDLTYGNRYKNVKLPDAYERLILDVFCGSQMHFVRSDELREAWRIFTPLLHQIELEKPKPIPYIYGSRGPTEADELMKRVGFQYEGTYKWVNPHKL

CCN1CCN(C(=S)c2ccc(Cl)c(Cl)c2)CC1
IC50 [1]: > 80 µM (inactive)
IC50 [2]: 18.2 µM (active)
IC50 [3]: 0.843 µM (active)
IC50 [4]: 0.81 µM (active)

Nc1ncnc(N2CCc3ccccc32)c1[N+](=O)[O-]
IC50 (Interleukin-8 [5]): > 79 µM (inactive)
AC50 (HEK293): 4.52 µM (active)
IC50 (Interleukin-8 [6]): 40.1 µM (inactive)

COc1ccc(C(=O)NC2CCc3ccccc32)cc1OC1CCN(C(C)C)CC1 (stereo not given)
IC50 [7]: 5.55 µM (active)
IC50 [8]: 2.12 µM (active)
IC50 [9]: 3.36 µM (active)

O=C(N/N=C/c1ccc([N+](=O)[O-])s1)c1cccc(Br)c1
IC50 (cells): 4.37 µM (active)
CC50 [10]: 7.59 µM (active)
EC50 [11]: 5.39 µM (active)
CC50 [12]: 6.21 µM (active)
AC50 [13]: 4.83 µM (active)
EC50 [14]: 0.754 µM (active)
EC50 [15]: > 104 µM (inactive)

Cc1nc(SCC(=O)NC2CCCCC2)nc(O)c1C
CC50 [16]: > 50 µM (active)

O=C1CC(=O)N(Cc2ccco2)C(=O)N1
IC50 [17]: > 100 µM (not active)
IC50 [18]: > 100 µM (not active)
IC50 (Prothrombin): 59.1 µM (active)
IC50 [19]: > 64 µM (inactive)
IC50 [20]: > 100 µM (inactive)
AC50 (HeLa): > 350 µM (inactive)
IC50 [21]: 1.04 µM (active)
IC50 [22]: 9.99 µM (active)
IC50 (Large T antigen): 76.3 µM (active)
IC50 [23]: > 100 µM (not active)
AC50 [24]: 11.2 µM (active)
AC50 (ORF 73): 132 µM (active)
IC50 [25]: > 100 µM (inactive)
IC50 [26]: 5.11 µM (active)
IC50 [27]: > 10 µM (not active)
IC50 [28]: 1.58 µM (active)

CCOc1ccc2c(c1)C(N(CCN1CCOCC1)C(=O)Nc1ccccc1)CC(C)(C)O2 (stereo not given)
AC50 [29]: 84 µM (active)
